Test results from patent publication US12053473B2, “Benzylamino substituted quinazolines and derivatives as SOS1 inhibitors” (priority 2016, dated 2024).
Where two headings read alike, the source gives them in different places.

Molecular target: SOS1 and KRAS G12D (protein-protein interaction) (Homo sapiens, UniProt Q07889)
Assay: KRAS::SOS1 AlphaScreen binding assay
Description: KRAS::SOS1 AlphaScreen Binding Assay
Low IC50 values are indicative of high potency of the SOS1 inhibitor compound in this assay setting:
10 nM (final assay concentration) KRAS G12D, 10 μM (final assay concentration) GDP and 5 nM (final assay concentration) GST-SOS1 are mixed in assay buffer prior to use and kept at room temperature.
AlphaLSA Glutathione Acceptor Beads and AlphaScreen Streptavidin Donor Beads are mixed in assay buffer at a concentration of 10 μg/mL (final assay concentration) each prior to use and kept at room temperature.
Compounds are diluted to a final start concentration of 100 μM and are tested in duplicate. […] For compound a start concentration of 100 μM, 150 nL of compound solution is transferred per well in 11 concentrations in duplicate with serial 1:5 dilutions.
The assay is run using a fully automated robotic system in a darkened room below 100 Lux. 10 μL of KRAS::SOS1 GDP mix is added into columns 1-24 to the 150 nL of compound solution (final dilution in the assay 1:100, final DMSO concentration 1%).
After a 30 minute incubation time 5 μL of bead mix is added into columns 1-23. Plates are kept at room temperature in a darkened incubator. After a further 60 minute incubation, the signal is measured using a PerkinElmer Envision HTS Multilabel Reader using the AlphaScreen specifications from PerkinElmer. Each plate contains the following controls: • diluted DMSO+KRAS::SOS1 GDP mix+bead mix • diluted DMSO+KRAS::SOS1 GDP mix Result Calculation:
IC50 values are calculated and analyzed using a 4 parametric logistic model.

[1] = values marked with * in the table, read-out: IC50 (SOS1)
[2] = assay buffer without EDTA (values not marked with an asterisk), read-out: IC50 (SOS1)
[3] = read-out: IC50 (SOS1), assay buffer without EDTA (values not marked with an asterisk)
[4] = assay buffer with 100 μM EDTA (values marked with an asterisk), read-out: IC50 (SOS1)

COc1cc2nc(C)nc(N[C@H](C)c3cc(N)cc(C(F)(F)F)c3)c2cc1[C@H]1CC[C@@H](C(=O)N2CCOCC2)CC1 [I-360]
IC50 (read-out: IC50 (SOS1)): 25 nM

Cc1nc(N[C@H](C)c2cccc(C(F)(F)F)c2)c2cc(-c3cc4n(n3)CCC(=O)N4)ccc2n1 [I-88]
IC50 [1]: 30 nM

Cc1nc(N[C@H](C)c2cccc(C(F)(F)F)c2)c2cc(C3CCN(CC(=O)O)CC3)ccc2n1 [I-293]
IC50 [2]: 11 nM

Cc1nc(N[C@H](C)c2cccc(C(F)(F)F)c2)c2cc(-c3ccc(=O)n(CC(=O)O)c3)ccc2n1 [I-341]
IC50 [1]: 35 nM

Cc1nc(N[C@H](C)c2cc(N)cc(C(F)(F)F)c2)c2cc([C@H]3CC[C@H](C(=O)N4CCN(C)CC4)CC3)cc(C)c2n1 [I-361]
IC50 (read-out: IC50 (SOS1)): 5 nM

COc1cc2nc(C)nc(N[C@H](C)c3cc(N)cc(C(F)(F)F)c3F)c2cc1[C@H]1CC[C@H](C(=O)N(C)C)CC1 [I-244]
IC50 (read-out: IC50 (SOS1)): 2 nM

Cc1nc(N[C@H](C)c2cccc(C(F)(F)F)c2C)c2cc(C3(O)CCC(O)CC3)ccc2n1 (stereo partly shown) [I-63]
IC50 [3]: 9 nM

Cc1nc(N[C@H](C)c2cc(N)cc(C(F)(F)F)c2)c2cc([C@H]3CC[C@H](C(=O)N(C)C)CC3)ccc2n1 [I-298]
IC50 (read-out: IC50 (SOS1)): 3 nM

Cc1cccc([C@@H](C)Nc2nc(C)nc3ccc([C@H]4CC[C@H](C(=O)N5CC(C#N)C5)CC4)cc23)c1 [I-265]
IC50 (read-out: IC50 (SOS1)): 36 nM

Cc1cccc([C@@H](C)Nc2nc(C)nc3ccc(-c4ccc(=O)n(CC(=O)N(C)C)c4)cc23)c1 [I-336]
IC50 [1]: 26 nM

Cc1cccc([C@@H](C)Nc2nc(C)nc3ccc([C@H]4CC[C@H](O)CC4)cc23)c1 [I-64]
IC50 [4]: 34 nM

COc1cc2nc(C)nc(N[C@H](C)c3cccc(C)c3)c2cc1[C@H]1CC[C@H](C(=O)N(C)C)CC1 [I-267]
IC50 (read-out: IC50 (SOS1)): 9 nM

COCC(=O)N1CCC(c2cc3c(N[C@H](C)c4cccc(C(F)(F)CO)c4)nc(C)nc3cc2OC)CC1 [I-165]
IC50 [2]: 2 nM

Cc1nc(N[C@H](C)c2cccc(C(F)(F)F)c2)c2cc(-c3cc4n(n3)CCC(=O)N4)c(C)cc2n1 [I-89]
IC50 [1]: 34 nM

COc1cc2nc(C)nc(N[C@H](C)c3cc(N)cc(C(F)(F)F)c3)c2cc1O[C@H]1CCN(C(C)=O)C1 [I-7]
IC50 [2]: 3 nM

COc1cc2nc(C)nc(N[C@H](C)c3cccc(C(F)(F)F)c3)c2cc1C1(O)CCC(C(=O)N(C)C[C@H](C)O)CC1 (stereo partly shown) [I-73]
IC50 [3]: 41 nM

Cc1nc(N[C@H](C)c2cc(N)cc(C(F)(F)F)c2)c2cc([C@H]3CC[C@@H](O)CC3)ccc2n1 [I-66]
IC50 [2]: 43 nM

COc1cc2nc(C)nc(N[C@H](C)c3cc(N)cc(C(F)(F)F)c3)c2cc1-c1ccc(C(=O)N(C)CCO)nc1 [I-224]
IC50 (read-out: IC50 (SOS1)): 4 nM

Cc1cccc([C@@H](C)Nc2nc(C)nc3ccc(C4CCS(=N)(=O)CC4)cc23)c1 (stereo partly shown) [I-330]
IC50 [1]: 20 nM

COCC(=O)N1CCC(c2ccc3nc(C)nc(N[C@H](C)c4cccc(C)c4)c3c2)CC1 [I-277]
IC50 [1]: 22 nM

COC1CN(C(=O)[C@H]2CC[C@H](c3ccc4nc(C)nc(N[C@H](C)c5cccc(C(F)(F)F)c5)c4c3)CC2)C1 [I-230]
IC50 (read-out: IC50 (SOS1)): 32 nM

COc1cc2nc(C)nc(N[C@H](C)c3cccc(C)c3)c2cc1-c1ccc(=O)n(CC(=O)N(C)C)c1 [I-335]
IC50 [1]: 27 nM

COCCN1CCN(C(=O)[C@H]2CC[C@@H](c3cc4c(N[C@H](C)c5cc(N)cc(C(F)(F)F)c5F)nc(C)nc4cc3OC)CC2)CC1 [I-247]
IC50: 18 nM

Cc1nc(N[C@H](C)c2cc(N)cc(C(F)(F)F)c2)c2cc([C@H]3CC[C@H](O)CC3)ccc2n1 [I-65]
IC50 [2]: 8 nM

Cc1nc(N[C@H](C)c2cc(N)cc(C(F)(F)F)c2)c2cc(O[C@H]3CCOC3)c(C)cc2n1 [I-10]
IC50 [2]: 7 nM

COc1cc2nc(C)nc(N[C@H](C)c3cc(N)cc(C(F)(F)F)c3)c2cc1[C@H]1CC[C@@H](C(=O)N2CCN(C)CC2)CC1 [I-354]
IC50 (read-out: IC50 (SOS1)): 22 nM

COCC(=O)N1CCC(n2cc(-c3ccc4nc(C)nc(N[C@H](C)c5cccc(C)c5)c4c3)cn2)CC1 [I-219]
IC50 [1]: 34 nM

Cc1nc(N[C@H](C)c2cc(N)cc(C(F)(F)F)c2)c2cc([C@H]3CC[C@@H](C(=O)N(C)CCO)CC3)ccc2n1 [I-253]
IC50 (read-out: IC50 (SOS1)): 7 nM

COc1cc2nc(C)nc(N[C@H](C)c3cccc(C(F)(F)F)c3)c2cc1-c1ccc(C(=O)N(C)CCO)cc1 [I-214]
IC50 (read-out: IC50 (SOS1)): 40 nM

CNC(=O)Cn1cc(-c2ccc3nc(C)nc(N[C@H](C)c4cccc(C(F)(F)F)c4)c3c2)ccc1=O [I-344]
IC50 [1]: 37 nM

CCN(C)C(=O)[C@H]1CC[C@H](c2ccc3nc(C)nc(N[C@H](C)c4cc(N)cc(C(F)(F)F)c4)c3c2)CC1 [I-238]
IC50 (read-out: IC50 (SOS1)): 3 nM

Cc1nc(N[C@H](C)c2cccc(C(F)(F)F)c2)c2cc([C@H]3CC[C@H](C(=O)N(C)C)CC3)ccc2n1 [I-229]
IC50 (read-out: IC50 (SOS1)): 7 nM

Cc1nc(N[C@H](C)c2cccc(C(F)(F)F)c2)c2cc(-c3ccc(=O)n(C)c3)c(C)cc2n1 [I-109]
IC50 (read-out: IC50 (SOS1)): 25 nM

Cc1nc(N[C@H](C)c2cc(N)cc(C(F)(F)F)c2)c2cc(C3CCN(C(=O)CN(C)C)CC3)ccc2n1 [I-313]
IC50 (read-out: IC50 (SOS1)): 3 nM

Cc1nc(N[C@H](C)c2cc(N)cc(C(F)(F)F)c2F)c2cc(C3CCS(=O)(=O)CC3)ccc2n1 [I-310]
IC50 (read-out: IC50 (SOS1)): 7 nM

COc1cc2nc(C)nc(N[C@H](C)c3cccc(C)c3)c2cc1-c1ccn(CC(=O)N(C)C)c(=O)c1 [I-338]
IC50 [1]: 39 nM

Cc1nc(N[C@H](C)c2cccc(Cl)c2)c2cc(C3=CCNCC3)ccc2n1 [I-172]
IC50 [4]: 39 nM

Cc1nc(N[C@H](C)c2cc(N)cc(C(F)(F)F)c2)c2cc(C3CCS(=O)(=O)CC3)ccc2n1 [I-322]
IC50 (read-out: IC50 (SOS1)): 3 nM

Cc1cccc([C@@H](C)Nc2nc(C)nc3cc(C)c(-c4ccc(C(=O)N5CCOCC5)cc4)cc23)c1 [I-83]
IC50 (read-out: IC50 (SOS1)): 44 nM

COc1cc2nc(C)nc(N[C@H](C)c3cccc(C)c3)c2cc1O[C@H]1CCN(C(C)=O)C1 [I-4]
IC50 [2]: 30 nM

COc1cc2nc(C)nc(N[C@H](C)c3cccc(C(F)(F)F)c3)c2cc1C1CCN(C(C)=O)CC1 [I-308]
IC50 (read-out: IC50 (SOS1)): 9 nM

Cc1nc(N[C@H](C)c2cccc(C(F)(F)F)c2)c2cc(C3=CCNCC3)ccc2n1 [I-171]
IC50 [4]: 18 nM

Cc1nc(N[C@H](C)c2cccc(C(F)(F)F)c2)c2cc([C@H]3CC[C@H](C(=O)N4CC(F)C4)CC3)ccc2n1 [I-231]
IC50 (read-out: IC50 (SOS1)): 19 nM

Cc1cccc([C@@H](C)Nc2nc(C)nc3ccc([C@H]4CC[S@](=N)(=O)CC4)cc23)c1 [I-332]
IC50 [1]: 18 nM

Cc1nc(N[C@H](C)c2cc(N)cc(C(F)(F)F)c2)c2cc([C@H]3CC[C@@H](C(=O)N(C)[C@@H]4CCOC4)CC3)ccc2n1 [I-243]
IC50 (read-out: IC50 (SOS1)): 9 nM

Cc1nc(N[C@H](C)c2cc(N)cc(C(F)(F)F)c2)c2cc([C@H]3CC[C@@H](C(=O)N(C)C)CC3)ccc2n1 [I-299]
IC50 (read-out: IC50 (SOS1)): 10 nM

Cc1nc(N[C@H](C)c2cc(N)cc(C(F)(F)F)c2)c2cc([C@H]3CC[C@@H](C(=O)N4CCOCC4)CC3)ccc2n1 [I-235]
IC50 (read-out: IC50 (SOS1)): 8 nM

COc1cc2nc(C)nc(N[C@H](C)c3cccc(C(F)(F)CO)c3)c2cc1C1CCN(C(C)=O)CC1 [I-166]
IC50 [2]: 2 nM

CC(=O)N1CC2(C1)CC(O)(c1cc(C)c3nc(C)nc(N[C@H](C)c4cccc(C(F)(F)F)c4)c3c1)C2 [I-42]
IC50 [2]: 26 nM

COCCN(C)C(=O)[C@H]1CC[C@H](c2ccc3nc(C)nc(N[C@H](C)c4cc(N)cc(C(F)(F)F)c4)c3c2)CC1 [I-236]
IC50 (read-out: IC50 (SOS1)): 2 nM

Cc1cccc([C@@H](C)Nc2nc(C)nc3ccc(C4CCNCC4)cc23)c1 [I-183]
IC50 [4]: 38 nM

COCC(=O)N1CCC(c2cc3c(N[C@H](C)c4cc(N)cc(C(F)(F)F)c4)nc(C)nc3cc2C)CC1 [I-315]
IC50 (read-out: IC50 (SOS1)): 3 nM

CCN(C)C(=O)[C@H]1CC[C@@H](c2ccc3nc(C)nc(N[C@H](C)c4cc(N)cc(C(F)(F)F)c4)c3c2)CC1 [I-239]
IC50 (read-out: IC50 (SOS1)): 15 nM

CC(=O)N1CCC(O)(c2cc(C)c3nc(C)nc(N[C@H](C)c4cccc(C(F)(F)F)c4)c3c2)CC1 [I-43]
IC50 [2]: 8 nM

Cc1nc(N[C@H](C)c2cccc(C(F)(F)F)c2)c2cc(C3CCOCC3)ccc2n1 [I-153]
IC50 [2]: 33 nM

Cc1cccc([C@@H](C)Nc2nc(C)nc3cc(C)c(C4CCN(C(C)C)CC4)cc23)c1 [I-288]
IC50 [2]: 22 nM

CONC(=O)CC(C)c1ccc2nc(C)nc(N[C@H](C)c3cccc(C(F)(F)F)c3)c2c1 (stereo partly shown) [I-376]
IC50 (read-out: IC50 (SOS1)): 34 nM

COc1cc2nc(C)nc(N[C@H](C)c3cc(N)cc(C(F)(F)F)c3F)c2cc1C1CCS(=O)(=O)CC1 [I-311]
IC50 (read-out: IC50 (SOS1)): 6 nM

Cc1nc(N[C@H](C)c2cccc(C(F)(F)F)c2F)c2cc([C@]3(O)CC[C@@H](O)CC3)ccc2n1 [I-61]
IC50: 8 nM

Cc1cccc([C@@H](C)Nc2nc(C)nc3ccc([C@H]4CC[C@H](C(=O)N5CCC(O)C5)CC4)cc23)c1 (stereo partly shown) [I-266]
IC50 (read-out: IC50 (SOS1)): 25 nM

COc1cc2nc(C)nc(N[C@H](C)c3cccc(C)c3)c2cc1-c1ccc(=O)[nH]c1 [I-101]
IC50 [1]: 28 nM

COc1c(C2(O)CCN(C(C)=O)CC2)cc2c(N[C@H](C)c3cccc(C(F)(F)F)c3F)nc(C)nc2c1C [I-20]
IC50 [2]: 7 nM

Cc1nc(N[C@H](C)c2cc(N)cc(C(F)(F)F)c2)c2cc(-c3ccc(=O)[nH]c3)ccc2n1 [I-102]
IC50 (read-out: IC50 (SOS1)): 9 nM

Cc1nc(N[C@H](C)c2cccc(C(F)(F)F)c2)c2cc([C@]3(O)CC[C@@H](O)CC3)ccc2n1 [I-60]
IC50: 10 nM
